# Reference: US20250230193A1, “CYCLIC COMPOUND HAVING SELECTIVE KRAS INHIBITORY EFFECT ON HRAS AND NRAS” (CHUGAI SEIYAKU KABUSHIKI KAISHA, priority 2022, published 2025)
# Columns and labels:
# [1] = biological target: GDP-bound NRAS wild-type protein (Homo sapiens, UniProt P01111); experiment: Binding to NRAS by surface plasmon resonance (SPR), Single Cycle Kinetics; conditions: KD ratio NRAS/KRAS, class symbols
# [2] = biological target: GDP-bound HRAS wild-type protein (Homo sapiens, UniProt P01112); experiment: Binding to HRAS by surface plasmon resonance (SPR), Single Cycle Kinetics; conditions: KD ratio HRAS/KRAS, class symbols
# GDP-bound HRAS wild-type protein, sequence (P01112 whole entry): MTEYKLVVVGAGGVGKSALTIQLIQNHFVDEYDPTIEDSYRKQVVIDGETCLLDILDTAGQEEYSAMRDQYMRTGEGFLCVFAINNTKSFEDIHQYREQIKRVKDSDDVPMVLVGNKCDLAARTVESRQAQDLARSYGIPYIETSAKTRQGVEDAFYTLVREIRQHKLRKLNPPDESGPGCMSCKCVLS
# GDP-bound NRAS wild-type protein, sequence (P01111 whole entry): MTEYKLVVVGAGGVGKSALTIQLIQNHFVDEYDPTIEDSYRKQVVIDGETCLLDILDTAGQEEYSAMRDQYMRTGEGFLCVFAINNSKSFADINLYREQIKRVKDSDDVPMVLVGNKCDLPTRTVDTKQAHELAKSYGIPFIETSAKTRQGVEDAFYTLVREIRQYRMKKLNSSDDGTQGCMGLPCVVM
Structure (SMILES),NRAS/KRAS (ratio of KD value with respect to GDP-bound NRAS wild-type protein to KD value with respect to KRAS) [1],HRAS/KRAS (ratio of KD value with respect to GDP-bound HRAS wild-type protein to KD value with respect to KRAS) [2]
CCC(CC)[C@H]1C(=O)N(C)[C@H](C(=O)N(C)C)CC(=O)N(C)[C@@H](COC)C(=O)N[C@@H]([C@@H](C)CC)C(=O)N(C)CC(=O)N(C)[C@H]2C/C=C\CCN(C2=O)[C@@H](Cc2ccc(C(F)(F)F)cc2)C(=O)N(C)CC(=O)N[C@@H](CCc2cc(F)c(C(F)(F)F)c(F)c2)C(=O)N2CCOC[C@H]2C(=O)NC2(CC(C)(C)C2)C(=O)N1C [PP2917],AA (a compound having 20 or more is denoted as AA),A (a compound having 10 or more and less than 20 is denoted as A)
CCC(CC)[C@H]1C(=O)N(C)[C@H](C(=O)N(C)C)CC(=O)N(C)[C@@H](COC)C(=O)N[C@@H]([C@@H](C)CC)C(=O)N(C)CC(=O)N(C)[C@H]2C/C=C\CCN(C2=O)[C@@H](Cc2ccc(C(F)(F)F)cc2)C(=O)N(C)CC(=O)N[C@@H](CCc2cc(F)c(C(F)(F)F)c(F)c2)C(=O)N2CC[C@H]2C(=O)NC2(CC(C)(C)C2)C(=O)N1C [PP2918],AA (a compound having 20 or more is denoted as AA),A (a compound having 10 or more and less than 20 is denoted as A)
CCC[C@H]1C(=O)N[C@@H]([C@@H](C)CC)C(=O)N(C)CC(=O)N(C)[C@H]2C/C=C\CCN(C2=O)[C@@H](Cc2ccc(C(F)(F)F)cc2)C(=O)N(C)CC(=O)N[C@@H](CCc2ccc(Cl)c(Cl)c2)C(=O)N2CCOC[C@H]2C(=O)NC2(CC(C)(C)C2)C(=O)N(C)[C@@H](C(CC)CC)C(=O)N(C)[C@H](C(=O)N(C)C)CC(=O)N1C [PP2920],AA (a compound having 20 or more is denoted as AA),A (a compound having 10 or more and less than 20 is denoted as A)
CCC[C@H]1C(=O)N[C@@H]([C@@H](C)CC)C(=O)N(C)CC(=O)N(C)[C@H]2C/C=C\CCN(C2=O)[C@@H](Cc2ccc(C(F)(F)F)cc2)C(=O)N(C)CC(=O)N[C@@H](CCc2ccc(Cl)c(Cl)c2)C(=O)N2CC[C@H]2C(=O)NC2(CC(C)(C)C2)C(=O)N(C)[C@@H](C(CC)CC)C(=O)N(C)[C@H](C(=O)N(C)C)CC(=O)N1C [PP2921],AA (a compound having 20 or more is denoted as AA),A (a compound having 10 or more and less than 20 is denoted as A)
CCC(CC)[C@H]1C(=O)N(C)[C@H](C(=O)N(C)C)CC(=O)N(C)[C@@H](COC)C(=O)N[C@@H]([C@@H](C)CC)C(=O)N(C)CC(=O)N(C)[C@H]2C/C=C\CCN(C2=O)[C@@H](Cc2ccc(C)cc2)C(=O)N(C)CC(=O)N[C@@H](CCc2cc(F)c(C(F)(F)F)c(F)c2)C(=O)N2CCCC[C@H]2C(=O)NC2(CC(C)(C)C2)C(=O)N1C [PP2922],AA (a compound having 20 or more is denoted as AA),A (a compound having 10 or more and less than 20 is denoted as A)
CCC[C@H]1C(=O)N[C@@H]([C@@H](C)CC)C(=O)N(C)CC(=O)N(C)[C@H]2C/C=C\CCN(C2=O)[C@@H](Cc2ccc(C(F)(F)F)cc2)C(=O)N(C)CC(=O)N[C@@H](CCc2ccc(C(F)(F)F)c(Cl)c2)C(=O)N2CCCC[C@H]2C(=O)NC2(CC(C)(C)C2)C(=O)N(C)[C@@H](C(CC)CC)C(=O)N(C)[C@H](C(=O)N(C)C)CC(=O)N1C [PP2928],AA (a compound having 20 or more is denoted as AA),A (a compound having 10 or more and less than 20 is denoted as A)
CCC[C@H]1C(=O)N[C@@H]([C@@H](C)CC)C(=O)N(C)CC(=O)N(C)[C@H]2C/C=C\CCN(C2=O)[C@@H](Cc2ccc(C(F)(F)F)cc2)C(=O)N(C)CC(=O)N[C@@H](CCc2ccc(C(F)(F)F)c(Cl)c2)C(=O)N2CCOC[C@H]2C(=O)NC2(CC(C)(C)C2)C(=O)N(C)[C@@H](C(CC)CC)C(=O)N(C)[C@H](C(=O)N(C)C)CC(=O)N1C [PP2929],AA (a compound having 20 or more is denoted as AA),A (a compound having 10 or more and less than 20 is denoted as A)
CCC(CC)[C@H]1C(=O)N(C)[C@H](C(=O)N(C)C)CC(=O)N(C)[C@@H](COC)C(=O)N[C@@H]([C@@H](C)CC)C(=O)N(C)CC(=O)N(C)[C@H]2C/C=C\CCN(C2=O)[C@@H](Cc2ccc(C)cc2)C(=O)N(C)CC(=O)N[C@@H](CCc2ccc(C(F)(F)F)c(Cl)c2)C(=O)N2CCCC[C@H]2C(=O)NC2(CC(C)(C)C2)C(=O)N1C [PP2931],A (a compound having 10 or more and less than 20 is denoted as A),A (a compound having 10 or more and less than 20 is denoted as A)
CCC[C@H]1C(=O)N[C@@H]([C@@H](C)CC)C(=O)N(C)CC(=O)N(C)[C@H]2C/C=C\CCN(C2=O)[C@@H](Cc2ccc(C(F)(F)F)cc2)C(=O)N(C)CC(=O)N[C@@H](CCc2ccc(C(F)(F)F)c(OC)c2)C(=O)N2CCCC[C@H]2C(=O)NC2(CC(C)(C)C2)C(=O)N(C)[C@@H](C(CC)CC)C(=O)N(C)[C@H](C(=O)N(C)C)CC(=O)N1C [PP2934],AA (a compound having 20 or more is denoted as AA),A (a compound having 10 or more and less than 20 is denoted as A)
CCC[C@H]1C(=O)N[C@@H]([C@@H](C)CC)C(=O)N(C)CC(=O)N(C)[C@H]2C/C=C\CCN(C2=O)[C@@H](Cc2ccc(C(F)(F)F)cc2)C(=O)N(C)CC(=O)N[C@@H](CCc2ccc(C(F)(F)F)c(OC)c2)C(=O)N2CCOC[C@H]2C(=O)NC2(CC(C)(C)C2)C(=O)N(C)[C@@H](C(CC)CC)C(=O)N(C)[C@H](C(=O)N(C)C)CC(=O)N1C [PP2935],A (a compound having 10 or more and less than 20 is denoted as A),A (a compound having 10 or more and less than 20 is denoted as A)
CCC[C@H]1C(=O)N[C@@H]([C@@H](C)CC)C(=O)N(C)CC(=O)N(C)[C@H]2C/C=C\CCN(C2=O)[C@@H](Cc2ccc(C(F)(F)F)cc2)C(=O)N(C)CC(=O)N[C@@H](CCc2ccc(C(F)(F)F)c(OC)c2)C(=O)N2CC[C@H]2C(=O)NC2(CC(C)(C)C2)C(=O)N(C)[C@@H](C(CC)CC)C(=O)N(C)[C@H](C(=O)N(C)C)CC(=O)N1C [PP2936],AA (a compound having 20 or more is denoted as AA),A (a compound having 10 or more and less than 20 is denoted as A)
CCC(CC)[C@H]1C(=O)N(C)[C@H](C(=O)N(C)C)CC(=O)N(C)[C@@H](COC)C(=O)N[C@@H]([C@@H](C)CC)C(=O)N(C)CC(=O)N(C)[C@H]2C/C=C\CCN(C2=O)[C@@H](Cc2ccc(C)cc2)C(=O)N(C)CC(=O)N[C@@H](CCc2ccc(C(F)(F)F)c(OC)c2)C(=O)N2CCCC[C@H]2C(=O)NC2(CC(C)(C)C2)C(=O)N1C [PP2937],A (a compound having 10 or more and less than 20 is denoted as A),A (a compound having 10 or more and less than 20 is denoted as A)
CCC(CC)[C@H]1C(=O)N(C)[C@H](C(=O)N(C)C)CC(=O)N(C)[C@@H](COC)C(=O)N[C@@H]([C@@H](C)CC)C(=O)N(C)CC(=O)N(C)[C@H]2C/C=C\CCN(C2=O)[C@@H](Cc2ccc(C)cc2)C(=O)N(C)CC(=O)N[C@@H](CCc2ccc(C(F)(F)F)c(OC)c2)C(=O)N2CCOC[C@H]2C(=O)NC2(CC(C)(C)C2)C(=O)N1C [PP2938],AA (a compound having 20 or more is denoted as AA),A (a compound having 10 or more and less than 20 is denoted as A)
CCC(CC)[C@H]1C(=O)N(C)[C@H](C(=O)N(C)C)CC(=O)N(C)[C@@H](COC)C(=O)N[C@@H]([C@@H](C)CC)C(=O)N(C)CC(=O)N(C)[C@H]2C/C=C\CCN(C2=O)[C@@H](Cc2ccc(C(F)(F)F)cc2)C(=O)N(C)CC(=O)N[C@@H](CCc2ccc(Cl)c(Cl)c2)C(=O)N2CCOC[C@H]2C(=O)NC2(CC(C)(C)C2)C(=O)N1C [PP2941],AA (a compound having 20 or more is denoted as AA),A (a compound having 10 or more and less than 20 is denoted as A)
CCC[C@H]1C(=O)N[C@@H]([C@@H](C)CC)C(=O)N(C)CC(=O)N(C)[C@H]2C/C=C\CCN(C2=O)[C@@H](Cc2ccc(C(F)(F)F)cc2)C(=O)N(C)CC(=O)N[C@@H](CCc2cc(Cl)c3sccc3c2)C(=O)N2C[C@H](OCC)C[C@H]2C(=O)NC2(CC(C)(C)C2)C(=O)N(C)[C@@H](C2CCCC2)C(=O)N(C)[C@H](C(=O)N(C)C)CC(=O)N1C [PP2946],A (a compound having 10 or more and less than 20 is denoted as A),A (a compound having 10 or more and less than 20 is denoted as A)
CCC[C@H]1C(=O)N[C@@H]([C@@H](C)CC)C(=O)N(C)CC(=O)N(C)[C@H]2C/C=C\CCN(C2=O)[C@@H](Cc2ccc(C)cc2)C(=O)N(C)CC(=O)N[C@@H](CCc2cc(Cl)c3sccc3c2)C(=O)N2C[C@H](OCC)C[C@H]2C(=O)NC2(CC(C)(C)C2)C(=O)N(C)[C@@H](C2CCCC2)C(=O)N(C)[C@H](C(=O)N(C)C)CC(=O)N1C [PP2947],B (a compound having 3 or more and less than 10 is denoted as B),B (a compound having 3 or more and less than 10 is denoted as B)
